Measured values published in PubChem BioAssay AID2060607 (Molecular Pharmacology Branch, DTP, NCI, 2025).

Tested on: 876862-298-R-J1-PDC complex spheroids, viability % test/control
Experiment: Anticancer human tumor 876862-298-R-J1-PDC patient-derived endometrial carcinoma cell line growth inhibition [CLK]
Settings: for IC50: curve of first compound; for viability, T/C: stronger effect = lower value
Outline: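 Multi-cell-type spheroids combined patient-derived tumor cells with HUVEC endothelial cells and human mesenchymal stem cells. Paired agents were dosed in half-log steps down from about clinical Cmax, or from 10 microM where Cmax was unknown.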

[1] = second compound 0.0316 µM, first compound 0.0316 µM
[2] = second compound 0.0316 µM, first compound 0.1 µM
[3] = second compound 0.0316 µM, first compound 0.316 µM
[4] = second compound 0.0316 µM, first compound 1 µM
[5] = second compound 0.0316 µM, first compound 3.16 µM
[6] = second compound 0.0316 µM, first compound 10 µM
[7] = second compound 0.1 µM, first compound 0.0316 µM
[8] = second compound 0.1 µM, first compound 0.1 µM
[9] = second compound 0.1 µM, first compound 0.316 µM
[10] = second compound 0.1 µM, first compound 1 µM
[11] = second compound 0.1 µM, first compound 3.16 µM
[12] = second compound 0.1 µM, first compound 10 µM
[13] = second compound 0.316 µM, first compound 0.0316 µM
[14] = second compound 0.316 µM, first compound 0.1 µM
[15] = second compound 0.316 µM, first compound 0.316 µM
[16] = second compound 0.316 µM, first compound 1 µM
[17] = second compound 0.316 µM, first compound 3.16 µM
[18] = second compound 0.316 µM, first compound 10 µM
[19] = second compound 1 µM, first compound 0.0316 µM
[20] = second compound 1 µM, first compound 0.1 µM
[21] = second compound 1 µM, first compound 0.316 µM
[22] = second compound 1 µM, first compound 1 µM
[23] = second compound 1 µM, first compound 3.16 µM
[24] = second compound 1 µM, first compound 10 µM
[25] = second compound 3.16 µM, first compound 0.0316 µM
[26] = second compound 3.16 µM, first compound 0.1 µM
[27] = second compound 3.16 µM, first compound 0.316 µM
[28] = second compound 3.16 µM, first compound 1 µM
[29] = second compound 3.16 µM, first compound 3.16 µM
[30] = second compound 3.16 µM, first compound 10 µM
[31] = second compound 10 µM, first compound 0.0316 µM
[32] = second compound 10 µM, first compound 0.1 µM
[33] = second compound 10 µM, first compound 0.316 µM
[34] = second compound 10 µM, first compound 1 µM
[35] = second compound 10 µM, first compound 3.16 µM
[36] = second compound 10 µM, first compound 10 µM
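Further: spheroids exposed to drugs for 7 days before readout.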
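Wherever viability, T/C is given: 100% = DMSO vehicle control wells.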

Structure (SMILES): CC(C)CC(NC(=O)C(Cc1ccccc1)NC(=O)c1cnccn1)B(O)O (stereo unspecified) + CNC(=O)c1ccc(Nc2nc(OC3CCCC3)c3c(-c4ccc5nc(C)oc5c4)c[nH]c3n2)c(OC)c1
- IC50 (second compound 0.0316 µM): 1.53 nM
- IC50 (second compound 0.1 µM): < 0.949 nM
- IC50 (second compound 0.316 µM): < 0.949 nM
- IC50 (second compound 1 µM): < 0.949 nM
- IC50 (second compound 3.16 µM): < 0.949 nM
- IC50 (second compound 10 µM): < 0.949 nM
- viability, T/C (second compound 0.0316 µM, first compound 0.000949 µM): 78.1%
- viability, T/C (second compound 0.0316 µM, first compound 0.003 µM): 10.6%
- viability, T/C (second compound 0.0316 µM, first compound 0.00949 µM): 0.67%
- viability, T/C (second compound 0.0316 µM, first compound 0.03 µM): 0.44%
- viability, T/C (second compound 0.0316 µM, first compound 0.0949 µM): 1.97%
- viability, T/C (second compound 0.0316 µM, first compound 0.3 µM): 1.37%
- viability, T/C (second compound 0.1 µM, first compound 0.000949 µM): 47.3%
- viability, T/C (second compound 0.1 µM, first compound 0.003 µM): 7.8%
- viability, T/C (second compound 0.1 µM, first compound 0.00949 µM): 0.68%
- viability, T/C (second compound 0.1 µM, first compound 0.03 µM): 0.53%
- viability, T/C (second compound 0.1 µM, first compound 0.0949 µM): 1.95%
- viability, T/C (second compound 0.1 µM, first compound 0.3 µM): 0.42%
- viability, T/C (second compound 0.316 µM, first compound 0.000949 µM): 43.2%
- viability, T/C (second compound 0.316 µM, first compound 0.003 µM): 5.92%
- viability, T/C (second compound 0.316 µM, first compound 0.00949 µM): 1.95%
- viability, T/C (second compound 0.316 µM, first compound 0.03 µM): 0.56%
- viability, T/C (second compound 0.316 µM, first compound 0.0949 µM): 1.66%
- viability, T/C (second compound 0.316 µM, first compound 0.3 µM): 0.96%
- viability, T/C (second compound 1 µM, first compound 0.000949 µM): 38.4%
- viability, T/C (second compound 1 µM, first compound 0.003 µM): 4.5%
- viability, T/C (second compound 1 µM, first compound 0.00949 µM): 0.69%
- viability, T/C (second compound 1 µM, first compound 0.03 µM): 0.62%
- viability, T/C (second compound 1 µM, first compound 0.0949 µM): 1.84%
- viability, T/C (second compound 1 µM, first compound 0.3 µM): 0.22%
- viability, T/C (second compound 3.16 µM, first compound 0.000949 µM): 27.6%
- viability, T/C (second compound 3.16 µM, first compound 0.003 µM): 3.22%
- viability, T/C (second compound 3.16 µM, first compound 0.00949 µM): 0.41%
- viability, T/C (second compound 3.16 µM, first compound 0.03 µM): 0.44%
- viability, T/C (second compound 3.16 µM, first compound 0.0949 µM): 1.98%
- viability, T/C (second compound 3.16 µM, first compound 0.3 µM): 1.11%
- viability, T/C (second compound 10 µM, first compound 0.000949 µM): 23.3%
- viability, T/C (second compound 10 µM, first compound 0.003 µM): 2.73%
- viability, T/C (second compound 10 µM, first compound 0.00949 µM): 0.85%
- viability, T/C (second compound 10 µM, first compound 0.03 µM): 0.4%
- viability, T/C (second compound 10 µM, first compound 0.0949 µM): 0.82%
- viability, T/C (second compound 10 µM, first compound 0.3 µM): 1.17%

Structure (SMILES): CC1(C)CCC(CN2CCN(c3ccc(C(=O)NS(=O)(=O)c4ccc(NCC5CCOCC5)c([N+](=O)[O-])c4)c(Oc4cnc5[nH]ccc5c4)c3)CC2)=C(c2ccc(Cl)cc2)C1 + CNC(=O)c1ccc(Nc2nc(OC3CCCC3)c3c(-c4ccc5nc(C)oc5c4)c[nH]c3n2)c(OC)c1
- IC50 (second compound 0.0316 µM): 5400 nM
- IC50 (second compound 0.1 µM): 473 nM
- IC50 (second compound 0.316 µM): < 31.6 nM
- IC50 (second compound 1 µM): < 31.6 nM
- IC50 (second compound 3.16 µM): < 31.6 nM
- IC50 (second compound 10 µM): < 31.6 nM
- viability, T/C [1]: 69.5%
- viability, T/C [2]: 88.6%
- viability, T/C [3]: 83%
- viability, T/C [4]: 90.6%
- viability, T/C [5]: 86.1%
- viability, T/C [6]: 11.2%
- viability, T/C [7]: 48.2%
- viability, T/C [8]: 52.2%
- viability, T/C [9]: 52.3%
- viability, T/C [10]: 49.2%
- viability, T/C [11]: 39.2%
- viability, T/C [12]: 11.8%
- viability, T/C [13]: 45.1%
- viability, T/C [14]: 39.5%
- viability, T/C [15]: 47.9%
- viability, T/C [16]: 46.1%
- viability, T/C [17]: 35.9%
- viability, T/C [18]: 9.32%
- viability, T/C [19]: 37.7%
- viability, T/C [20]: 34.4%
- viability, T/C [21]: 32.3%
- viability, T/C [22]: 33.2%
- viability, T/C [23]: 26.4%
- viability, T/C [24]: 9.54%
- viability, T/C [25]: 23.6%
- viability, T/C [26]: 23.8%
- viability, T/C [27]: 25.4%
- viability, T/C [28]: 21.6%
- viability, T/C [29]: 19.4%
- viability, T/C [30]: 5.35%
- viability, T/C [31]: 19.9%
- viability, T/C [32]: 19.8%
- viability, T/C [33]: 17.6%
- viability, T/C [34]: 20.3%
- viability, T/C [35]: 14.9%
- viability, T/C [36]: 5.66%

Structure (SMILES): CC1COCCN1c1cc(C2(S(C)(=N)=O)CC2)nc(-c2ccnc3[nH]ccc23)n1 (stereo unspecified) + CNC(=O)c1ccc(Nc2nc(OC3CCCC3)c3c(-c4ccc5nc(C)oc5c4)c[nH]c3n2)c(OC)c1
- IC50 (second compound 0.0316 µM): 2200 nM
- IC50 (second compound 0.1 µM): < 31.6 nM
- IC50 (second compound 0.316 µM): < 31.6 nM
- IC50 (second compound 1 µM): < 31.6 nM
- IC50 (second compound 3.16 µM): < 31.6 nM
- IC50 (second compound 10 µM): < 31.6 nM
- viability, T/C [1]: 70.2%
- viability, T/C [2]: 84.7%
- viability, T/C [3]: 75.5%
- viability, T/C [4]: 69.8%
- viability, T/C [5]: 40.9%
- viability, T/C [6]: 22.5%
- viability, T/C [7]: 47.2%
- viability, T/C [8]: 50.9%
- viability, T/C [9]: 42.7%
- viability, T/C [10]: 44.6%
- viability, T/C [11]: 24.3%
- viability, T/C [12]: 15%
- viability, T/C [13]: 43.8%
- viability, T/C [14]: 41.5%
- viability, T/C [15]: 39.1%
- viability, T/C [16]: 30%
- viability, T/C [17]: 20.5%
- viability, T/C [18]: 11.4%
- viability, T/C [19]: 34.4%
- viability, T/C [20]: 37.4%
- viability, T/C [21]: 28.3%
- viability, T/C [22]: 22.6%
- viability, T/C [23]: 13%
- viability, T/C [24]: 6.42%
- viability, T/C [25]: 29%
- viability, T/C [26]: 21%
- viability, T/C [27]: 17.2%
- viability, T/C [28]: 11.7%
- viability, T/C [29]: 8.18%
- viability, T/C [30]: 3.92%
- viability, T/C [31]: 22.4%
- viability, T/C [32]: 19.5%
- viability, T/C [33]: 14.1%
- viability, T/C [34]: 12.6%
- viability, T/C [35]: 7.52%
- viability, T/C [36]: 3.99%
